Source: patent publication US20200375945A1, “INHALABLE FORMULATION OF A SOLUTION CONTAINING INDACATEROL MALEATE AND GLYCOPYRRONIUM BROMIDE” (priority 2019, published 2020)

Assays:
[1] = Tested concentration and assay of the active ingredients in the inhalation solution; assay type: physicochemical; details: in the sample solutions (ethanol/water, benzalkonium chloride, edetate disodium dihydrate)
[2] = Aerodynamic particle size distribution on Next Generation Impactor (NGI); assay type: physicochemical; details: sample 2 sprayed with soft mist inhaler, NGI at 30 L/min
Procedure: Sample 2 was sprayed with a soft mist inhaler. Aerodynamic particle size distribution of droplets of sample 2 was measured on Next Generation Impactor (NGI). Next Generation Impactor operated at a flow rate of 30 L/min was used for determination of particle size distribution. For each of the impactor experiments, the impactor collection stages were coated with a silicone oil. The aerodynamic particle size distribution is expressed in terms of mass median aerodynamic diameter (MMAD) and Geometric Standard Deviation (GSD).

## CCc1cc2c(cc1CC)CC(NC[C@H](O)c1ccc(O)c3[nH]c(=O)ccc13)C2.O=C(O)/C=C\C(=O)O [Indacaterol maleate, 5-[(R)-2-(5,6-diethyl-indan-2-ylamino)-1-hydroxy-ethyl]-8-hydroxy-(1H)-quinolin-2-one]
[1]
  Dissolution of the active in the solution: completely dissolved
[2]
  MMAD (mass median aerodynamic diameter): 3.37 μm
